Reference: patent publication US8563254B2, “Biomarkers of tumor pharmacodynamic response” (Novartis AG, priority 2009, dated 2013)

Assays:
GTL-16 cells = test: Western blot of total protein lysates, GTL-16; type: cell-based, human; details: GTL-16, 0.3 μM, 16 hr and 24 hr
Method: Total protein lysates were prepared from the GTL-16 and A375 cells with RIPA lysis buffer (Upstate, Millipore Corporation, Charlottesville, Va., USA). Cells were washed with PBS and 500 ul of ice-cold RIPA buffer, containing protease inhibitor cocktail tablet (Roche Diagnostic GmbH, Mannheim, Germany) and phosphatase inhibitors (Sigma-Aldrich, Inc., St. Louis, Mo., USA), was added to each plate on ice. After 15 min the cells were scrapped from the plate surface and spun at 16000 RPM for 10 min at 4° C. The supernatant was collected and frozen at −80° C. Nuclear protein fractions were prepared by the NE-PER nuclear and cytoplasmic extraction kit (Pierce Biotechnology, Rockford, Ill., USA). Proteins were quantified by bicinchoninic acid assay (Pierce Biotechnology, Rockford, Ill., USA) for Western blotting. Primary antibodies specific for NFκB p65, cREL, p-ERK1/2, p-c-jun, ERK1 and Jun were purchased from Santa Cruz Biotechnology (Santa Cruz Biotechnology, Inc., Santa Cruz, Calif., USA) with the exception of Hsp70 and TBP (nuclear loading control), which were obtained from StressGen (StressGen, Assay Designs, Inc., Aim Arbor, Mich., USA) and Abcam (Abcam Inc., Cambridge, Mass., USA), respectively. 4-12% Bis-Tris SDS-PAGE, denaturing, non-reducing gels were loaded with 30 μg of total protein, a SeeBlue2Plus pre-stained protein standard and MES SDS running buffer were utilized for the electrophoretic separation in a XCell SureLock™ Mini-Cell (Invitrogen Corporation, Inc., Carlsbad, Calif., USA). An iBlot™ gel transfer PVDF stack with iBlot™ gel transfer system (Invitrogen) was used. An Odyssey Infrared Imaging System was used to detect the immunocomplex (Li-COR Biotechnologies, Inc., Lincoln, Nebr., USA). Li-COR blocking buffer was used to limit cross-reactivity. Membranes were incubated at 4° C. overnight in the primary antibody diluted in blocking buffer, followed by 1 hr room temperature incubation with a secondary IgG antibody (Li-COR IR dye, Li-COR).

[1] = tested on: GTL-16 tumor-bearing mice; test: Serum IL-8 / mouse KC in GTL-16 mouse xenograft model; type: in vivo
Method: (§1) The in vivo study was carried out in strict accordance with Swiss law for animal protection and was approved by the Swiss Cantonal Veterinary Office of Basel-Stadt. GTL-16 (4×10^6) and A375 cells (5×10^6) were inoculated subcutaneously in the right flank in 200 μl Hanks' balanced salt solution (HBSS) or PBS, respectively. Invasive procedures were performed under Forene anesthesia. All experiments were performed in female Harlan HsdNpa: Athymic Nude-nu mice (Laboratory Animal Services, Novartis Pharma AG, Basel). The animals were kept under optimized hygienic conditions with 12 hr dark, 12 hr light conditions. The animals were fed food and water ad libitum. A single 75 mg/kg and 50 mg/kg dose of Hsp90 inhibitor, NVP-AUY922 was administered to the GTL-16 and A375 tumor-bearing mice, when tumors had reached a mean volume of 200 mm^3-500 mm^3 in size. Mice in the control group were injected with the vehicle (D5W). Serum was isolated and tumors dissected over the time course 0-168 hr. Tumors were cut in two halves. One half was paraffin embedded and the other snap frozen, and stored at −80° C.
Human IL-8 levels in cell culture supernatants treated with NVP-AUY922 were initially assessed as part of a multiplexed bead-based cytokine panel (hu 27-plex panel I, Bio-rad Laboratories, Hercules, Calif., USA) with a BioPlex Suspension Array System (Bio-rad). Human IL-8 and mouse KC levels in serum derived from GTL-16 and A375 tumor-bearing mice treated with NVP-AUY922 were measured by single-plex cytokine bead-based assay (Milliplex, Millipore, Billerica, Mass., USA). The BioPlex system uses a liquid suspension array of beads. The beads align in a single file through a flow cell to the detector, where a red classification laser at a wavelength of 635 nm and a green reporter laser at a wavelength of 532 nm are used to identify each bead's spectral address and associated reporter signal, respectively.

A375 tumor-bearing mice = test: Hsp70 expression in A375 xenograft tumors; type: in vivo; details: single 50 mg/kg dose i.v.
Method: as §1
Total protein lysates were prepared from the GTL-16 and A375 cells with RIPA lysis buffer (Upstate, Millipore Corporation, Charlottesville, Va., USA). […] Proteins were quantified by bicinchoninic acid assay (Pierce Biotechnology, Rockford, Ill., USA) for Western blotting. […]

For `CCNC(=O)c1noc(-c2cc(C(C)C)c(O)cc2O)c1-c1ccc(CN2CCOCC2)cc1` [NVP-AUY922, 5-(2,4-Dihydroxy-5-isopropyl-phenyl)-4-(4-morhpolin-4-ylmethyl-phenyl)-isoxazole-3-carboxylic acid ethylamide], the Hsp70 induction (GTL-16 cells) was “induction was observed”, the “levels of phospho-ERK1/2 and phospho-c-Jun” value (GTL-16 cells) was “significantly diminished” and the “total ERK and c-Jun levels” value (GTL-16 cells) was “unaffected”. The “total cellular levels of NFκB p65 and c-REL” value (GTL-16 cells) was “essentially unchanged”, the “murine IL-8 levels, measured indirectly as mu KC” value ([1]; serum) was “unchanged” and the “earliest time of significant decrease in serum IL-8” value ([1]; single 75 mg/kg dose) was 6 h. The “time by which serum IL-8 recovers to pre-treatment levels” value ([1]; single 75 mg/kg dose) was no more than 72 h, the “maximum decline of serum IL-8 levels” value ([1]; single 75 mg/kg dose, 12 hr post-treatment) was “approximately 70%” and the “Hsp70 induction in tumor compared with GTL-16 model” value (A375 tumor-bearing mice) was “same pattern of Hsp70 induction”.
